Measurements: paper PMC7655571, “Acetylcholinesterase inhibition in electric eel and human donor blood: an in vitro approach to investigate interspecies differences and human variability in toxicodynamics” (Archives of Toxicology, 2020)
Where “and” joins values, the source holds several entries; their conditions need not be identical. Identical values can stand only once. Entries after “also recorded” stand apart in the source; their conditions may differ. Like-named read-outs stand apart in the source and are kept apart here.

Tests used:
electric eel AChE = settings: cited from earlier work
[1] = target: T1, Electrophorus electricus AChE (Electrophorus electricus, UniProt O42275); assay: AChE inhibition, electric eel enzyme (Ellman method); format: biochemical; settings: for AChE inhibition (in words), electric eel: concentration–response curves
T1 construct: purchased Sigma-Aldrich C2888
Method: (§1) A 1.3 mM DTNB buffer and a 6 mM acetylthiocholine buffer were prepared in the 50 mM sodium phosphate buffer, a 3 mM ethopropazine buffer was prepared in sterile water and all were stored in aliquots at − 20 °C. A 600 µM ethopropazine buffer was prepared just before use in sodium phosphate buffer.
(§2) Stock solutions were diluted in methanol to create a dosing series and also stored at − 20 °C. These series were 100× diluted in sodium phosphate buffer to get 1% methanol solutions, resulting in a final concentration of 0.1% methanol in the wells.
AChE from Electrophorus electricus (electric eel) and freshly drawn (maximum one-day-old), venous EDTA whole blood samples from healthy human donors were used. […] Following incubation for 30 min at room temperature, electric eel AChE was used directly in the enzyme activity assay (see “Enzyme activity assay”). For human blood AChE, 50 µL of the blood was added to a new 48-wells plate and 950 µL Triton buffer was added to these wells (20× dilution).
Briefly, 20 µL of electric eel AChE or 20 µL of Triton-diluted blood (either exposed or unexposed) and 20 µL ethopropazine were added to 460 µL of DTNB buffer in a 48-wells plate. […] Blank wells contained only DTNB buffer and unexposed enzyme/blood to correct for any background absorbance. To these wells, 100 µL sodium phosphate buffer was added instead of acetylthiocholine after incubation. The final concentration of electric eel AChE was 4 mU/well.
All in vitro data were analysed in GraphPad Prism (version 8.4) and are expressed as mean ± standard deviation (SD). For data analysis, vehicle control (0.1% methanol) was set at 100% for both human and electric eel AChE. For human blood, the technical replicates were averaged to perform statistical tests. […] The electric eel AChE data consisted of 3 technical replicates per experiment and 3–4 independent biological replicates.

human AChE (blood) = settings: source: blood; ref Das et al. ([2006]); cited from earlier work
[2] = test system: human AChE (red blood cells); settings: source: red blood cells; ref Ajilore et al. [2018]; cited from earlier work
[3] = measured or estimated in plasma following human exposure, cited from earlier work
human blood AChE = target: T2, human blood AChE (Homo sapiens, UniProt P22303); assay: AChE inhibition in human donor whole blood (Ellman method); format: biochemical; settings: for IC50: IC50 Human; for AChE inhibition (in words), human blood: concentration–response curves
T2 construct: 90 µL undiluted blood in a 48-wells plate; from tissue; host or cells: venous EDTA whole blood from healthy human donors, lysed and diluted in Triton X-100 buffer
Method: as §1, §2
AChE from Electrophorus electricus (electric eel) and freshly drawn (maximum one-day-old), venous EDTA whole blood samples from healthy human donors were used. […] For human blood AChE, 50 µL of the blood was added to a new 48-wells plate and 950 µL Triton buffer was added to these wells (20× dilution).
Briefly, 20 µL of electric eel AChE or 20 µL of Triton-diluted blood (either exposed or unexposed) and 20 µL ethopropazine were added to 460 µL of DTNB buffer in a 48-wells plate. […] Blank wells contained only DTNB buffer and unexposed enzyme/blood to correct for any background absorbance. To these wells, 100 µL sodium phosphate buffer was added instead of acetylthiocholine after incubation.
Unexposed, diluted blood (100 µL) was added to a 96-wells plate and 100 µL transformation agent (20 mg potassium ferricyanide, 5 mg potassium cyanide, 100 mg sodium bicarbonate and 50 µL Triton X-100 in 100 mL water) was added. […] Blank wells contained transformation reagent and buffer to correct for any background absorbance.
All in vitro data were analysed in GraphPad Prism (version 8.4) and are expressed as mean ± standard deviation (SD). For data analysis, vehicle control (0.1% methanol) was set at 100% for both human and electric eel AChE. For human blood, the technical replicates were averaged to perform statistical tests. Unpaired t tests were used to test for differences between men and women and a one-way ANOVA followed by a post-hoc Tukey test was used to compare data between different age groups (group 1: ≥ 60 years; group 2: 31–60 years; group 3: ≤ 30 years).

[4] = target: human AChE (recombinant enzyme); settings: source: recombinant enzyme; ref Li et al. ([2019]); cited from earlier work
[5] = whole blood, average of 20 donors

T1 sequence (O42275 24-633): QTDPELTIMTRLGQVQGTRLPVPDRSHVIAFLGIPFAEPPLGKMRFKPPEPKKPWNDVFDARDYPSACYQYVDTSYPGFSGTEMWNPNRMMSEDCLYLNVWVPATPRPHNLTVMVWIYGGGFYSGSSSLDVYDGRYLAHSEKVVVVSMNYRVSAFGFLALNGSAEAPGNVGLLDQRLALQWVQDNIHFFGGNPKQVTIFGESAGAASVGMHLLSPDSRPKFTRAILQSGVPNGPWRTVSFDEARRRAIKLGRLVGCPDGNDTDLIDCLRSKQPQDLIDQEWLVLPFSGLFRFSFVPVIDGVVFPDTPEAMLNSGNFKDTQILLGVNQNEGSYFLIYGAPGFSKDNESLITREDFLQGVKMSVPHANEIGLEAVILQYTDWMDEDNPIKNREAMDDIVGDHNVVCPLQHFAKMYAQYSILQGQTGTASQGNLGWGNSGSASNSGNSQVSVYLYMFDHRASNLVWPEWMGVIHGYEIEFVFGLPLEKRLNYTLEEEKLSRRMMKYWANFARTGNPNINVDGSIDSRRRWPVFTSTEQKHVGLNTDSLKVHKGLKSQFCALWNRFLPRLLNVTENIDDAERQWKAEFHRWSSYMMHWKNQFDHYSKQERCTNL
T2 sequence (P22303 32-617 isoform P22303-2 limits assumed): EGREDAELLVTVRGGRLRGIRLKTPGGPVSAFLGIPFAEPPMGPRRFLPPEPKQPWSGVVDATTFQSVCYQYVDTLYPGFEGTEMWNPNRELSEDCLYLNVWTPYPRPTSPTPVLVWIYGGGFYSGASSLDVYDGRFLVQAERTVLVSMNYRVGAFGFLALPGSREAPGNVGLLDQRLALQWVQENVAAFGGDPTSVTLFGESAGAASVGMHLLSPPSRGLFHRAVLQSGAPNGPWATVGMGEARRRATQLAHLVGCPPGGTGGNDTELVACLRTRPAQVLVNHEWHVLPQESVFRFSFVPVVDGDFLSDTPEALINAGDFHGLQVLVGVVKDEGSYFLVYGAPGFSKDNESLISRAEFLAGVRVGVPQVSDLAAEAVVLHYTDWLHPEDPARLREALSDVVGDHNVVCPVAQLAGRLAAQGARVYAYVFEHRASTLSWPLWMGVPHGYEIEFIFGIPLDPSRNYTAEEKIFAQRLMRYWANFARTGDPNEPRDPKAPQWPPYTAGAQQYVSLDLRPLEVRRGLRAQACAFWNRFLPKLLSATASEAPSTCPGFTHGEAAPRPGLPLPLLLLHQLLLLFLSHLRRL

CCOP(=S)(OCC)Oc1nc(Cl)c(Cl)cc1Cl [CPF, Chlorpyrifos]
IC50 (electric eel AChE; ref Assis et al. ([2012])): 30 nM
IC50 (electric eel AChE; ref Čolović et al. ([2011])): 4500 nM
IC50 [1]: > 350 nM
AChE inhibition (in words), electric eel [1]: do not show any AChE inhibition; also recorded: did not inhibit AChE
AChE inhibition (in words), electric eel ([1]; listed as chlorpyrifos): did not show inhibition
IC50 (human AChE (blood)): 120 nM
IC50 [2]: 200000 nM
In vivo concentration ([3]; ref Buratti et al. ([2003])): ≤ 10 µM
In vivo concentration ([3]; ref Eyer et al. ([2009])): ≤ 5 µM
In vivo concentration ([3]; ref Huen et al. ([2012])): ≤ 5 µM
IC50 (human blood AChE; [5]): > 10000 nM
AChE inhibition (in words), human blood (human blood AChE): do not inhibit AChE activity; also recorded: do not show any AChE inhibition; also recorded: did not inhibit AChE
AChE inhibition (in words), human blood (human blood AChE; listed as chlorpyrifos): did not show inhibition

CCOP(=O)(OCC)Oc1nc(Cl)c(Cl)cc1Cl [CPO, Chlorpyrifos-oxon]
IC50 (electric eel AChE; ref Jett et al. ([1999])): 10 nM
IC50 (electric eel AChE; ref Meijer et al. ([2014])): 10 nM
IC50 (electric eel AChE; ref Čolović et al. ([2011])): 30 nM
IC20 ([1]; 30 min exposure, room temperature): 10 nM
AChE inhibition (in words), electric eel [1]: show inhibition of AChE
In vivo concentration ([3]; ref Eyer et al. ([2009])): ≤ 0.06 µM
In vivo concentration ([3]; ref Heilmair et al. ([2008])): ≤ 0.02 µM
AChE inhibition (in words), human blood (human blood AChE): show inhibition of AChE
IC20 (human blood AChE; donor 3, read-out: IC20 Value): 100 nM
IC20 (human blood AChE; donor 4, read-out: IC20 Value): 100 nM
IC20 (human blood AChE; donor 5, read-out: IC20 Value): 100 nM
IC20 (human blood AChE; donor 8, read-out: IC20 Value): 100 nM
IC20 (human blood AChE; donor 11, read-out: IC20 Value): 100 nM
IC20 (human blood AChE; donor 15, read-out: IC20 Value): 100 nM
IC20 (human blood AChE; donor 17, read-out: IC20 Value): 100 nM
concentration at which AChE activity is inhibited completely (human blood AChE; human donor blood): ≥ 2.9 µM
Coefficient of variation (CV) C1 Human (human blood AChE; human variability in AChE inhibition, concentration level C1 (Table S2)): 5.5%
Coefficient of variation (CV) C2 Human (human blood AChE; human variability in AChE inhibition, concentration level C2 (Table S2)): 6.0%
Coefficient of variation (CV) C3 Human (human blood AChE; human variability in AChE inhibition, concentration level C3 (Table S2)): 12%
Coefficient of variation (CV) C4 Human (human blood AChE; human variability in AChE inhibition, concentration level C4 (Table S2)): 99%
Human uncertainty factor (UF) UF97.5 (human blood AChE; interindividual differences, concentration closest to the IC20, 95% CI in brackets): 2.2 and 2.2 [1.9–2.7]
IC20 (human blood AChE; whole blood, average of 20 donors, read-out: IC20 Human): 170 nM

CCOP(=S)(OCC)Oc1cc(C)nc(C(C)C)n1 [DZN, diazinon]
IC50 (electric eel AChE; ref Assis et al. ([2012])): 300 nM
IC50 (electric eel AChE; ref Čolović et al. ([2011])): > 200000 nM
IC50 [1]: > 8500 nM
AChE inhibition (in words), electric eel [1]: do not show any AChE inhibition; also recorded: did not inhibit AChE
AChE inhibition (in words), electric eel ([1]; listed as diazinon): did not show inhibition
IC50 [4]: 38000 nM
In vivo concentration ([3]; ref Buratti et al. ([2003])): ≤ 10 µM
IC50 (human blood AChE; [5]): > 10000 nM
AChE inhibition (in words), human blood (human blood AChE): do not inhibit AChE activity; also recorded: do not show any AChE inhibition; also recorded: did not inhibit AChE
AChE inhibition (in words), human blood (human blood AChE; listed as diazinon): did not show inhibition
